Earlier results in article PMC10401651, “Characterization of Uranyl (UO2^2+) Ion Binding to Amyloid Beta (Aβ) Peptides: Effects on Aβ Structure and Aggregation” (ACS Chemical Neuroscience, 2023).

Target: T1, Aβ42 oligomers (Homo sapiens, UniProt P05067)
T1 construct: Synthetic lyophilized wt Aβ (1–42) peptides, abbreviated as Aβ42; purchased JPT Peptide Technologies (Germany); host or cells: synthetic peptide
Design: method as in PMID 36849796
Settings: 0.05% SDS; cited from earlier work

T1 sequence (P05067 672-713 limits assumed): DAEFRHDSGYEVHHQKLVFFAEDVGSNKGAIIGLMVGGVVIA

For `[Ni+2]` [Ni(II) ions], the “concentration required for full disruption of homogeneous AβO0.05%SDS oligomers” value is listed as 500 mM.
